Reference: ChEMBL document CHEMBL4602670, “Palhinosides A-H: Flavone Glucosidic Truxinate Esters with Neuroprotective Activities from Palhinhaea cernua” (J Nat Prod, 2020)
Calls of active or inactive are those of the source. No cut-off for these calls is given here.

system: HT-22; assay: Neuroprotective activity in mouse HT22 assessed as decrease in glutamate-induced ROS generation preincubated for 8 hrs followed by addition of 2,7-dichlorofluorescein diacetate and measured after 30 mins by fluorescence based assay; assay type: functional, cell-based

**Q.** How did the Activity turn out when COC(=O)[C@H]1[C@@H](C(=O)OC[C@H]2O[C@@H](Oc3cc(O)c4c(=O)cc(-c5ccc(O)cc5)oc4c3)[C@H](O)[C@@H](O)[C@@H]2O)[C@H](c2ccc(O)cc2)[C@@H]1c1ccc(O)cc1 was run?
**A.** Dose-dependent effect

system: HT-22; assay: Neuroprotective activity against glutamate-induced cell damage in mouse HT22 assessed as increase cell viability at 0.6 to 15 uM after 24 hrs by luminescent cell viability assay; assay type: functional, cell-based

**Q.** With O=C(OC[C@H]1O[C@@H](Oc2cc(O)c3c(=O)cc(-c4ccc(O[C@H]5O[C@@H](CO)[C@H](O)[C@@H](O)[C@@H]5O)cc4)oc3c2)[C@H](O)[C@@H](O)[C@@H]1O)[C@H]1[C@H](C(=O)OC[C@H]2O[C@@H](Oc3cc(O)c4c(=O)cc(-c5ccc(O[C@H]6O[C@@H](CO)[C@H](O)[C@@H](O)[C@@H]6O)cc5)oc4c3)[C@H](O)[C@@H](O)[C@@H]2O)[C@H](c2ccc(O)cc2)[C@H]1c1ccc(O)cc1 as the compound, how does the Activity read?
**A.** inactive

**Q.** O=C(OC[C@H]1O[C@@H](Oc2cc(O)c3c(=O)cc(-c4ccc(O[C@H]5O[C@@H](CO)[C@H](O)[C@@H](O)[C@@H]5O)cc4)oc3c2)[C@H](O)[C@@H](O)[C@@H]1O)[C@@H]1[C@H](C(=O)OC[C@H]2O[C@@H](Oc3cc(O)c4c(=O)cc(-c5ccc(O)cc5)oc4c3)[C@H](O)[C@@H](O)[C@@H]2O)[C@@H](c2ccc(O)cc2)[C@H]1c1ccc(O)cc1 was tested. Which Activity did it give?
**A.** inactive

**Q.** For O=C(OC[C@H]1O[C@@H](Oc2cc(O)c3c(=O)cc(-c4ccc(O)cc4)oc3c2)[C@H](O)[C@@H](O)[C@@H]1O)[C@@H]1[C@H](C(=O)OC[C@H]2O[C@@H](Oc3cc(O)c4c(=O)cc(-c5ccc(O)cc5)oc4c3)[C@H](O)[C@@H](O)[C@@H]2O)[C@@H](c2ccc(O)cc2)[C@H]1c1ccc(O)cc1, which Activity is on record?
**A.** inactive

**Q.** O=C(OC[C@H]1O[C@@H](Oc2cc(O)c3c(=O)cc(-c4ccc(O)cc4)oc3c2)[C@H](O)[C@@H](O)[C@@H]1O)[C@H]1[C@H](C(=O)OC[C@H]2O[C@@H](Oc3cc(O)c4c(=O)cc(-c5ccc(O[C@H]6O[C@@H](CO)[C@H](O)[C@@H](O)[C@@H]6O)cc5)oc4c3)[C@H](O)[C@@H](O)[C@@H]2O)[C@H](c2ccc(O)cc2)[C@H]1c1ccc(O)cc1 was tested. Which Activity did it give?
**A.** inactive

system: HT-22; assay: Neuroprotective activity against glutamate-induced cell damage in mouse HT22 assessed as increase cell viability at 1.3 to 15 uM after 24 hrs by luminescent cell viability assay; assay type: functional, cell-based

**Q.** How did the Activity turn out when COC(=O)[C@H]1[C@H](C(=O)OC[C@H]2O[C@@H](Oc3cc(O)c4c(=O)cc(-c5ccc(O[C@@H]6O[C@H](CO)[C@@H](O)[C@H](O)[C@H]6O)cc5)oc4c3)[C@H](O)[C@@H](O)[C@@H]2O)[C@H](c2ccc(O)cc2)[C@H]1c1ccc(O)cc1 was run?
**A.** Active

**Q.** COC(=O)[C@H]1[C@@H](C(=O)OC[C@H]2O[C@@H](Oc3cc(O)c4c(=O)cc(-c5ccc(O)cc5)oc4c3)[C@H](O)[C@@H](O)[C@@H]2O)[C@H](c2ccc(O)cc2)[C@@H]1c1ccc(O)cc1 was tested. Which Activity did it give?
**A.** Active

**Q.** How did the Activity turn out when Cc1c(C)c2c(c(C)c1O)CCC(C)(C(=O)O)O2 (stereo not given) was run?
**A.** Active

**Q.** COC(=O)[C@H]1[C@@H](C(=O)OC[C@H]2O[C@@H](Oc3cc(O)c4c(=O)cc(-c5ccc(O[C@@H]6O[C@H](CO)[C@@H](O)[C@H](O)[C@H]6O)cc5)oc4c3)[C@H](O)[C@@H](O)[C@@H]2O)[C@H](c2ccc(O)cc2)[C@@H]1c1ccc(O)cc1 was tested. Which Activity did it give?
**A.** Active

**Q.** With COC(=O)[C@H]1[C@H](C(=O)OC[C@H]2O[C@@H](Oc3cc(O)c4c(=O)cc(-c5ccc(O)cc5)oc4c3)[C@H](O)[C@@H](O)[C@@H]2O)[C@H](c2ccc(O)cc2)[C@H]1c1ccc(O)cc1 as the compound, how does the Activity read?
**A.** Active
